Measurements as given in US12139464B2, “Simplified structural mimetics of AIPS as quorum sensing inhibitors” (Wisconsin Alumni Research Foundation, priority 2016, dated 2024).
“Also recorded” adds a separate entry of the source. Where two headings read alike, the source gives them in different places. Positions of bridges follow the written chain, without caps; N, C: chain ends. Non-standard residues stand in square brackets, D forms with d. Residues, ends and D or L forms follow the SMILES beside them. Phe(3-Cl) = N[C@@H](Cc1cccc(Cl)c1)C(=O)O; Phe(4-Cl) = N[C@@H](Cc1ccc(Cl)cc1)C(=O)O; Phe(3-F) = N[C@@H](Cc1cccc(F)c1)C(=O)O; Cha = N[C@@H](CC1CCCCC1)C(=O)O; AEEA = NCCOCCOCC(=O)O; Dap = NC[CH](N)C(=O)O; Aoc = NCCCCCCCC(=O)O

Experiments:
Solubility in water = type: physicochemical
[1] = biological target: S. aureus AgrC in group-IV (Staphylococcus aureus, UniProt Q309Z2); test: AgrC inhibition YFP reporter gene assay, S. aureus group-IV (AH1872); type: cell-based; conditions: for AgrC activity, preliminary screening: 10 μM where stated, YFP fluorescence relative to 1% DMSO control
Procedure: (§1) Reporter Gene Assays: The peptidomimetics were assayed for AgrC I-IV inhibition using the four YFP reporter strains listed in Table 1. Peptide stock solutions were diluted with DMSO in serial dilutions, and 2 μL of the diluted solution was added to each of the wells in a black, clear-bottom 96-well microtiter plate (Costar). An overnight culture of S. aureus YFP strain (Table 1) was diluted 1:50 with fresh BHI (pH 7.35). A […] of diluted culture was added to each well of the microtiter plate containing peptide (resulting in a 1% DMSO solution). Plates were incubated at 37° C. with shaking at 200 rpm for 24 h. Fluorescence (excitation 500 nm/emission 540 nm) and optical density at 600 nm (OD600) of each well were then recorded using a BioTek Synergy 2 plate reader. […] Full dose response curves are provided in Figures S3A-D, S4A-D, S5A-D, S6A-D and S7A-F.
(§2) A first compound library of AIP mimetics was screened for AgrC modulatory activity in all four groups of S. aureus using strains containing yfp reporter. These strains are summarized in Table 1, and include the multidrug-resistant strain USA300 LAC.[17] In these S. aureus reporters, binding of the native AIP to AgrC activates YFP production and can be measured using fluorescence. Thus, compounds capable of inhibiting native AIP binding produce a reduction in fluorescence. Preliminary compound screening was performed at 10 μM in each strain; the full results of preliminary screening are shown in FIGS. 4A-4D. Key findings from these initial screens are summarized here. To simplify the discussion, the full library will be described as three smaller sub-libraries. In the first sub-library (termed nxLX), there is a linker with n=x methylenes, residue 3 is Leu, and residue 4 (X) is Leu, Ile, or Phe (FIG. 2A). The second and third sub-libraries (nxIX and nxFX) are identical to the first sub-library except that there is an Ile or Phe at residue 3, respectively.

[2] = biological target: S. aureus AgrC in group-I (Staphylococcus aureus, UniProt A0A0H2XKA3); test: AgrC inhibition YFP reporter gene assay, S. aureus group-I (AH1677); type: cell-based; conditions: for AgrC activity, preliminary screening: 10 μM where stated, YFP fluorescence relative to 1% DMSO control
Procedure: as §1, §2

[3] = biological target: S. aureus AgrC in group-III (Staphylococcus aureus, UniProt O33590); test: AgrC inhibition YFP reporter gene assay, S. aureus group-III (AH1747); type: cell-based; conditions: for AgrC activity, preliminary screening: 10 μM where stated, YFP fluorescence relative to 1% DMSO control
Procedure: as §1, §2

[4] = biological target: S. aureus AgrC in group-II (Staphylococcus aureus, UniProt O33587); test: AgrC inhibition YFP reporter gene assay, S. aureus group-II (AH430); type: cell-based; conditions: for AgrC activity, preliminary screening: 10 μM where stated, YFP fluorescence relative to 1% DMSO control
Procedure: as §1, §2

[5] = read-out: Group-IV IC50, 95% CI, YFP reporter strain, 24 h, value (95% CI)
[6] = read-out: Group-I IC50, 95% CI, YFP reporter strain, 24 h, value (95% CI)
[7] = read-out: Group-III IC50, 95% CI, YFP reporter strain, 24 h, value (95% CI)
[8] = read-out: Group-II IC50, 95% CI, YFP reporter strain, 24 h, value (95% CI)
[9] = read-out: IC50 Group-IV, Table 3, against S. aureus AgrC
[10] = read-out: IC50 Group-I, Table 3, against S. aureus AgrC
[11] = read-out: IC50 Group-III, Table 3, against S. aureus AgrC
[12] = read-out: IC50 Group-II, Table 3, against S. aureus AgrC

Compound	water solubility (Solubility in water)	IC50 [1, 5] [nM]	IC50 [2, 6] [nM]	IC50 [3, 7] [nM]	IC50 [4, 8] [nM]	AgrC activity, preliminary screening ([1]; group-IV)	AgrC activity, preliminary screening ([2]; group-I)	AgrC activity, preliminary screening ([3]; group-III)	AgrC activity, preliminary screening ([4]; group-II)	IC50 [1, 9] [nM]	IC50 [2, 10] [nM]	IC50 [3, 11] [nM]	IC50 [4, 12] [nM]	further results
CC(=O)NC1CSC(=O)C(Cc2ccccc2)NC(=O)C(Cc2ccccc2)NC(=O)CCCCCCCCNC1=O (stereo not shown) [n8FF]	relatively low water solubilities; also recorded: less soluble than AIP-III D4A in water	3490	468	125	479	–	–	–	–	–	–	–	–	less potent than n7FF ([1]; group-IV): 4 fold; less potent than n7FF ([3]; group-III): 4 fold
CC(=O)N[C@H]1CNC(=O)[C@H](Cc2ccccc2)NC(=O)[C@H](Cc2ccccc2)NC(=O)CCCCCCCCNC1=O [n8FF amide]	markedly more soluble in water than their parent thiolactones	–	4740	2610	1340	virtually no inhibition	far less active	minimal levels	minimal levels	–	–	–	–	–
CC(=O)N[C@H]1CSC(=O)[C@H](Cc2cccc(F)c2)NC(=O)[C@H](CC2CCCCC2)NC(=O)COCCOCCNC1=O [n7OCha3fF] (Ac-C[AEEA][Cha][Phe(3-F)]; thioester 1-C)	–	–	–	–	–	–	–	–	–	597	109	35	1380	–
CC(=O)NC1CNC(=O)C(Cc2ccccc2)NC(=O)C(Cc2ccccc2)NC(=O)CCCCCCCNC1=O (stereo not shown) [n7FF amide] (Ac-[Dap][Aoc]FF; lactam 1-C; configuration not given here)	markedly more soluble in water than their parent thiolactones	–	3940	573	2200	virtually no inhibition	far less active	minimal levels	minimal levels	–	–	–	–	–
CC(=O)N[C@H]1CSC(=O)[C@H](Cc2ccccc2)NC(=O)[C@H](CC2CCCCC2)NC(=O)COCCOCCNC1=O [n7OChaF] (Ac-C[AEEA][Cha]F; thioester 1-C)	–	–	–	–	–	–	–	–	–	1080	998	205	790	–
CC(=O)N[C@H]1CSC(=O)[C@H](Cc2cccc(F)c2)NC(=O)[C@H](Cc2ccccc2)NC(=O)COCCOCCNC1=O [n7OF3fF] (Ac-C[AEEA]F[Phe(3-F)]; thioester 1-C)	–	–	–	–	–	–	–	–	–	> 5000	40	171	1210	–
CC(=O)N[C@H]1CSC(=O)[C@H](Cc2cccc(F)c2)NC(=O)[C@H](CC2CCCCC2)NC(=O)CCCCCCCNC1=O [n7Cha3fF] (Ac-C[Aoc][Cha][Phe(3-F)]; thioester 1-C)	–	–	–	–	–	–	–	–	–	1160	429	19	2340	–
CC(=O)NC1CNC(=O)C(Cc2ccccc2)NC(=O)C(Cc2ccccc2)NC(=O)COCCOCCNC1=O (stereo not shown) [n7OFF amide] (Ac-[Dap][AEEA]FF; lactam 1-C; configuration not given here)	markedly more soluble in water than their parent thiolactones	> 10000	> 10000	> 10000	> 10000	no significant activity	no significant activity	no significant activity	no significant activity	–	–	–	–	–
CC(=O)N[C@H]1CSC(=O)[C@H](Cc2ccc(Cl)cc2)NC(=O)[C@H](Cc2ccccc2)NC(=O)COCCOCCNC1=O [n7OF4clF] (Ac-C[AEEA]F[Phe(4-Cl)]; thioester 1-C)	–	–	–	–	–	–	–	–	–	> 5000	2590	2480	113	–
CC(=O)N[C@H]1CSC(=O)[C@H](Cc2ccccc2)NC(=O)[C@H](Cc2ccccc2)NC(=O)CCCCCCCNC1=O [n7FF] (Ac-C[Aoc]FF; thioester 1-C)	relatively low water solubilities; also recorded: less soluble than AIP-III D4A in water	985	340	34.8	495	minimal levels	minimal levels	minimal levels	minimal levels	–	–	–	–	IC50 relative to that of t-AIP-II ([1]; group-IV): 3-7 fold; IC50 relative to that of t-AIP-II ([2]; group-I): 3-7 fold; IC50 relative to that of t-AIP-II ([3]; group-III): 3-7 fold; IC50 relative to that of t-AIP-II ([4]; group-II): 3-7 fold
CC(=O)N[C@H]1CSC(=O)[C@H](Cc2ccccc2)NC(=O)[C@H](Cc2ccccc2)NC(=O)COCCOCCNC1=O [n7OFF] (Ac-C[AEEA]FF; thioester 1-C)	–	5940	181	332	583	modestly active	approximately as active as t-AIP-II, n7FF, and n8FF	modestly active	approximately as active as t-AIP-II, n7FF, and n8FF	5940	181	332	583	more soluble in water than n7FF (Solubility in water): approximately 100 fold; more potent than n7FF ([2]; group-I): ~2 fold
CC(=O)N[C@H]1CSC(=O)[C@H](Cc2cccc(Cl)c2)NC(=O)[C@H](Cc2ccccc2)NC(=O)COCCOCCNC1=O [n7OF3clF] (Ac-C[AEEA]F[Phe(3-Cl)]; thioester 1-C)	–	–	–	–	–	–	–	–	–	–	225	1140	217	–
